Results from patent US11376233B2 (AJOU UNIVERSITY INDUSTRY-ACADEMIC COOPERATION FOUNDATION, priority 2017, dated 2022).

Assays:
[1] = tested on: catalase and SOD2; assay: Tissue immunohistostaining of cochlea (spiral ganglia, auditory hair cells) in noise-induced hearing loss animal model; format: in vivo, Balb/c mice; conditions: immunohistochemistry, spiral ganglia (apex, middle, base) and auditory hair cells in cochlea; pretreated 50 mg/kg
Procedure: Confocal Laser Scanning Microscopes and immunostaining were performed for the morphological analysis of spiral ganglia and hair cells located in the organ of Corti in the cochlea in noise-induced hearing loss animal model of Example 1. […] The animal tissues were immobilized and embedded with paraffin to obtain tissue sections. Anti-oxidation-related protein antibodies were primarily attached to the tissue sections, fluorescent antibodies were secondarily attached thereto, and immunohistochemistry was performed to analyze the expression behavior of the anti-oxidation-related proteins. The antibodies were subjected to immunohistochemistry with the antioxidant factors, catalase (Abcam, ab1877, Cambridge, UK), SOD2 (Santa Cruz, Calif., USA), and DAPI (Invitrogen, Carlsbad, Calif.).

[2] = tested on: HEI-OC1 cells; assay: Cytotoxicity of sarpogrelate by WST-1 analysis; format: cell-based; conditions: 0.1, 1, 10 and 25 μM for 24 hours
Procedure: (§1) Auditory cell (HEI-OC1; House-Ear Institute-organ of Corti 1) lines expressing auditory genes were used, and the HEI-OC1 cells were cultured at 33° C. and under 10% CO2 in DMEM medium (Dulbecco's modified Eagle's Medium) containing a high concentration of glutamine, supplemented with 10% fetal bovine serum (FBS) and 25 U/ml of interferon gamma.

[3] = tested on: HEI-OC1 cells; assay: Cytotoxicity and apoptosis caused by H2O2, WST-1 analysis; format: cell-based; conditions: pretreatment 0.1, 1, 10 and 25 μM for 1 hour, then 500 μM H2O2 for 24 hours
Procedure: as §1, with “gamma. A noise-induced hearing loss cell line was established through treatment with H2O2 to produce reactive oxygen species (ROS) by oxidative stress during induction of hearing loss by noise.” for “gamma.”

[4] = tested on: catalase and SOD2; assay: mRNA expression of antioxidant enzymes by quantitative real-time PCR in H2O2-treated auditory cells; format: cell-based; conditions: pre-treated 1, 10, 25 and 50 μM for 1 hour, 250 μM H2O2 for 24 hours
Procedure: (§2) The mRNA expression was determined by quantitative real-time PCR after extraction of total RNA and synthesis of cDNA. Protein expression was observed by extracting total protein with RIPA buffer, separating proteins in the order of size by SDS-PAGE and then attaching catalase (catalase, Abcam, ab1877, Cambridge, UK)) and SOD2 (superoxide dismutase 2, Santa Cruz, Calif., USA) thereto.

[5] = tested on: catalase and SOD2; assay: Protein expression of antioxidant enzymes by Western blotting in H2O2-treated auditory cells; format: cell-based; conditions: pre-treated 1, 10, 25 and 50 μM for 1 hour, 250 μM H2O2 for 24 hours
Procedure: as §2

[6] = tested on: platelet aggregation; conditions: cited from earlier work
[7] = tested on: peripheral arterial occlusion; conditions: rat, injection of lauric acid; cited from earlier work
[8] = tested on: arterial thrombosis; conditions: mouse vascular endothelial injury; rat polyethylene tube; cited from earlier work
[9] = tested on: rat vascular smooth muscles; conditions: in vitro; cited from earlier work

## COc1cccc(CCc2ccccc2OCC(CN(C)C)OC(=O)CCC(=O)O)c1 (stereo not drawn) [sarpogrelate, 4-[2-(dimethylamino)-1-({2-[2-(3-methoxyphenyl)ethyl]phenoxy}methyl)ethoxy]-4-oxobutanoic acid]
[1]
  expression of SOD2: significantly increased
  expression of catalase: significantly increased
[2]
  cytotoxicity of sarpogrelate: not to cause cytotoxicity
[3]
  apoptosis of auditory cells caused by H2O2: inhibiting apoptosis
[4]
  mRNA expression of SOD2: increased
  mRNA expression of catalase: increased
[5]
  protein expression of SOD2: increased
  protein expression of catalase: increased
[6]
  platelet aggregation by collagen and secondary platelet aggregation by ADP or epinephrine: inhibited
[7]
  onset of the condition in the peripheral arterial occlusion model: inhibits the onset of the condition
[8]
  formation of thrombus in arterial thrombosis models: inhibit the formation of thrombus
[9]
  contraction of vascular smooth muscles by serotonin: inhibiting the contraction
